{"source": "patent US20210008004A1", "about": "“CANNABINOID FORMULATIONS AND METHODS INCLUDING THE ANTIOXIDANT C60” (priority 2017, published 2021)", "origin": "cited, not measured here", "key": {"CB1 receptor": {"biological_target": "CB1 receptor (Homo sapiens, UniProt P21554)", "sequence (P21554 whole entry)": "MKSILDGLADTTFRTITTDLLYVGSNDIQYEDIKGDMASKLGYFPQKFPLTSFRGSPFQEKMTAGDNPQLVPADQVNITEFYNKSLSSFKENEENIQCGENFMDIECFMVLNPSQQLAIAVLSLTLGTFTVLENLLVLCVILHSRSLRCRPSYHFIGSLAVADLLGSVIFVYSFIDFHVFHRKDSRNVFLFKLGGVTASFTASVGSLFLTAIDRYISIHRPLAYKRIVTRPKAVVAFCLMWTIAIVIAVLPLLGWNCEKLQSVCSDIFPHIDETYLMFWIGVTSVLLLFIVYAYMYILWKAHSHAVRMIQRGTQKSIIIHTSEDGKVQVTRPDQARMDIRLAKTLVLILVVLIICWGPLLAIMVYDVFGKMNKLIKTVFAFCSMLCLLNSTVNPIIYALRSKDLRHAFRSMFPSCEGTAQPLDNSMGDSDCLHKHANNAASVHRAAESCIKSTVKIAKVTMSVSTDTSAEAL"}, "peripheral CB2-receptors": {"biological_target": "peripheral CB2-receptors (Homo sapiens, UniProt P34972)", "sequence (P34972 whole entry)": "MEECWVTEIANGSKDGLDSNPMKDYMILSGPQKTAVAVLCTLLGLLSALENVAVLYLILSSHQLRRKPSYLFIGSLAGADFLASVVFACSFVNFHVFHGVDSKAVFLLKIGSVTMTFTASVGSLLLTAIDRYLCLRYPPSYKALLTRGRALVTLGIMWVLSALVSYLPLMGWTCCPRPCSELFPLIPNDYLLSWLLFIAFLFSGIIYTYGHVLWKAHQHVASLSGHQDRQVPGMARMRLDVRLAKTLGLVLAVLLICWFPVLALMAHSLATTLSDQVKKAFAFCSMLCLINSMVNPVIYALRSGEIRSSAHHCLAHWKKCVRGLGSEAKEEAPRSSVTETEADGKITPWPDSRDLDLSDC", "settings": "in vivo"}}, "data": [{"smiles": "COc1ccc(/C=C/c2cc(OC)cc(=O)o2)cc1", "note": "[Yangonin]", "values": [{"measurement": "affinity to the CB1 receptor", "setting": "CB1 receptor", "value": "significant affinity"}]}, {"smiles": "c12c3c4c5c1c1c6c7c2c2c8c3c3c9c4c4c%10c5c5c1c1c6c6c%11c7c2c2c7c8c3c3c8c9c4c4c9c%10c5c5c1c1c6c6c%11c2c2c7c3c3c8c4c4c9c5c1c1c6c2c3c41", "note": "[Example C60, buckminsterfullerene]", "values": [{"measurement": "toxicity", "setting": "rodent; even high doses", "value": "does not exhibit toxicity"}, {"measurement": "rodent life span", "setting": "rodent; some rodents", "value": "doubled"}, {"measurement": "solubility in lipids or aqueous solutions", "value": "not typically soluble"}]}, {"smiles": "C=C1CC/C=C(\\C)CC[C@@H]2[C@@H]1CC2(C)C", "note": "[beta-caryophyllene]", "values": [{"measurement": "agonist activity at peripheral CB2-receptors", "setting": "peripheral CB2-receptors", "value": "selective agonist"}]}]}
